Data reported in the supplement of paper PMC12513837.
± gives the standard deviation of the averaged measurements.

The test systems below were run with CC(=O)N1CCc2c(c(N3CCCc4cc(-c5cnn(C)c5)c(C(F)F)cc43)nn2C2CCC(CN3CCN(c4ccc5c(c4)C(=O)N(C4CCC(=O)NC4=O)C5=O)CC3)CC2)C1 [CBPD-409] (assay: AUC of viability dose-response curve (relative to vehicle, 8 doses up to 10 µM) (fraction); higher = less sensitive (more viable); extreme values may be limits of the assay).
Experimental: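 PRISM multiplexed pooled barcoded cell line viability screen at the Broad Institute, 887 cancer cell lines treated with CBPD-409 (p300/CBP PROTAC degrader) at 8 concentrations in threefold dilution, top dose 10 µM. The read-out is the area under the dose-response curve of relative viability versus vehicle (n=3). AUC < 0.3 is called strongly sensitive and AUC > 0.8 resistant.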

Test System	AUC of viability dose-response curve
ICC12_BILIARY_TRACT	1
ICC15_BILIARY_TRACT	0.265
ICC137_BILIARY_TRACT	0.501
IGR1_SKIN	0.626
IGR37_SKIN	0.229
IGR39_SKIN	0.847
IGROV1_OVARY	0.956
IHH4_THYROID	0.762
IM95_STOMACH	0.57
IPC298_SKIN	0.808
ISHIKAWAHERAKLIO02ER_ENDOMETRIUM	1
ISTMES1_PLEURA	0.481
ISTMES2_PLEURA	0.579
J82_URINARY_TRACT	0.921
JAR_PLACENTA	0.238
JEG3_PLACENTA	0.307
JEKO1_HAEMATOPOIETIC_AND_LYMPHOID_TISSUE	1
JHH1_LIVER	0.282
JHH4_LIVER	0.997
JHH5_LIVER	0.614
JHH7_LIVER	0.291
JHOC5_OVARY	1
JHOM1_OVARY	0.99
JHOS2_OVARY	0.472

Test System	AUC of viability dose-response curve
JHUEM2_ENDOMETRIUM	0.965
JHUEM7_ENDOMETRIUM	1
JIMT1_BREAST	1
JJN3_HAEMATOPOIETIC_AND_LYMPHOID_TISSUE	0.896
JL1_PLEURA	0.532
JM1_HAEMATOPOIETIC_AND_LYMPHOID_TISSUE	0.4
JMSU1_URINARY_TRACT	1
JMURTK2_SOFT_TISSUE	0.399
JOPACA1_PANCREAS	1
JR_SOFT_TISSUE	0.34
JURKAT_HAEMATOPOIETIC_AND_LYMPHOID_TISSUE	0.66
JURLMK1_HAEMATOPOIETIC_AND_LYMPHOID_TISSUE	0.361
JVM3_HAEMATOPOIETIC_AND_LYMPHOID_TISSUE	1
K029AX_SKIN	0.793
K562_HAEMATOPOIETIC_AND_LYMPHOID_TISSUE	1
KALS1_CENTRAL_NERVOUS_SYSTEM	1
KARPAS299_HAEMATOPOIETIC_AND_LYMPHOID_TISSUE	1
KARPAS422_HAEMATOPOIETIC_AND_LYMPHOID_TISSUE	0.752
KARPAS620_HAEMATOPOIETIC_AND_LYMPHOID_TISSUE	0.449
KARPAS1718_HAEMATOPOIETIC_AND_LYMPHOID_TISSUE	0.585
KATOIII_STOMACH	0.581
KCL22_HAEMATOPOIETIC_AND_LYMPHOID_TISSUE	0.552
KD_SOFT_TISSUE	0.299
KE37_HAEMATOPOIETIC_AND_LYMPHOID_TISSUE	0.925

Test System	AUC of viability dose-response curve
KE39_STOMACH	1
KE97_STOMACH	1
KELLY_AUTONOMIC_GANGLIA	0.234 ± 0.054
KHM1B_HAEMATOPOIETIC_AND_LYMPHOID_TISSUE	0.665
KKU055_BILIARY_TRACT	0.915
KKU100_BILIARY_TRACT	0.994
KKU213_BILIARY_TRACT	0.767
KLE_ENDOMETRIUM	0.91
KMBC2_URINARY_TRACT	0.841
KMCH1_BILIARY_TRACT	0.96
KMH2_HAEMATOPOIETIC_AND_LYMPHOID_TISSUE	1
KMRC1_KIDNEY	1
KMRC3_KIDNEY	0.906
KMRC20_KIDNEY	0.738
KMS11_HAEMATOPOIETIC_AND_LYMPHOID_TISSUE	0.497
KMS12BM_HAEMATOPOIETIC_AND_LYMPHOID_TISSUE	0.28
KMS18_HAEMATOPOIETIC_AND_LYMPHOID_TISSUE	0.466
KMS27_HAEMATOPOIETIC_AND_LYMPHOID_TISSUE	0.801
KMS28BM_HAEMATOPOIETIC_AND_LYMPHOID_TISSUE	0.583
KNS42_CENTRAL_NERVOUS_SYSTEM	0.413
KNS60_CENTRAL_NERVOUS_SYSTEM	0.779
KNS62_LUNG	0.953
KNS81_CENTRAL_NERVOUS_SYSTEM	1
KON_UPPER_AERODIGESTIVE_TRACT	0.7

Test System	AUC of viability dose-response curve
KOPN8_HAEMATOPOIETIC_AND_LYMPHOID_TISSUE	0.704
KOSC2CL343_UPPER_AERODIGESTIVE_TRACT	0.875
KP2_PANCREAS	0.512
KP3_PANCREAS	1
KP4_PANCREAS	0.625
KS1_CENTRAL_NERVOUS_SYSTEM	0.307
KU1919_URINARY_TRACT	0.267
KURAMOCHI_OVARY	0.967
KYM1_SOFT_TISSUE	0.446
KYO1_HAEMATOPOIETIC_AND_LYMPHOID_TISSUE	0.628
KYSE30_OESOPHAGUS	0.619
KYSE70_OESOPHAGUS	1
KYSE140_OESOPHAGUS	1
KYSE150_OESOPHAGUS	0.834
KYSE180_OESOPHAGUS	0.929
KYSE270_OESOPHAGUS	0.722
KYSE410_OESOPHAGUS	0.901
KYSE450_OESOPHAGUS	0.761
KYSE510_OESOPHAGUS	0.928
KYSE520_OESOPHAGUS	0.797
L33_PANCREAS	0.692
L82_HAEMATOPOIETIC_AND_LYMPHOID_TISSUE	0.44
LAMA84_HAEMATOPOIETIC_AND_LYMPHOID_TISSUE	0.832
LC1SQSF_LUNG	0.991

Test System	AUC of viability dose-response curve
LCLC103H_LUNG	1
LI7_LIVER	1
LK2_LUNG	0.178
LMSU_STOMACH	0.672
LN18_CENTRAL_NERVOUS_SYSTEM	0.607
LN229_CENTRAL_NERVOUS_SYSTEM	1
LN382_CENTRAL_NERVOUS_SYSTEM	1
LN464_CENTRAL_NERVOUS_SYSTEM	0.404
LNCAPCLONEFGC_PROSTATE	0.249
LNZ308_CENTRAL_NERVOUS_SYSTEM	0.998
LOUNH91_LUNG	0.731
LOVO_LARGE_INTESTINE	0.131
LOXIMVI_SKIN	0.845
LPS141_SOFT_TISSUE	1
LS180_LARGE_INTESTINE	0.961
LS411N_LARGE_INTESTINE	0.988
LS513_LARGE_INTESTINE	0.568
LS1034_LARGE_INTESTINE	0.295
LS_AUTONOMIC_GANGLIA	0.248
LU99_LUNG	0.831
LUDLU1_LUNG	1
LXF289_LUNG	0.522
M059K_CENTRAL_NERVOUS_SYSTEM	0.673
MALME3M_SKIN	0.272

Test System	AUC of viability dose-response curve
MB1_THYROID	0.776
MC116_HAEMATOPOIETIC_AND_LYMPHOID_TISSUE	0.804
MCAS_OVARY	1
MCC13_SKIN	1
MCC26_SKIN	0.98
MCC142_SKIN	0.969
MCF7_BREAST	0.701
MDAMB175VII_BREAST	0.999
MDAMB231_BREAST	0.701
MDAMB361_BREAST	0.368
MDAMB435S_SKIN	1
MDAMB436_BREAST	0.505
MDAMB453_BREAST	0.401
MDAMB468_BREAST	0.97
MDAPCA2B_PROSTATE	0.266
MEG01_HAEMATOPOIETIC_AND_LYMPHOID_TISSUE	0.74
MEL285_UVEA	0.639
MEL290_UVEA	0.688
MELHO_SKIN	0.263
